Experimental data from US20220389230A1, “BLAST FURNACE SLAG-TYPE PAINT” (FUKKO CO., LTD., priority 2019, published 2022).
Like-named read-outs stand apart in the source and are kept apart here.

Assays:
[1] = Confirmation of safety: presence or absence of danger (Table 2)
Experimental: The presence or absence of danger was evaluated based on the concentration adjustment work in Table 1 and whether or not it was subject to legal regulations.

[2] = Corrosiveness of alkaline substances to aluminum, change in appearance after 24 hours
Experimental: For comparison with the aqueous solution shown in Table 3, a slurry liquid obtained by adding 10 parts by weight of water to 20 parts by weight of ordinary Portland cement was allowed to contact with an aluminum plate (A1050) not subjected to the surface treatment and an aluminum sash frame coated with a sulfuric acid anodized film at the spot, and a change in the appearance after 24 hours was observed.

[3] = pH and heat of dissolution of aqueous solutions that may give an alkaline stimulus (Table 1)
[4] = Table 2; cited from earlier work

Row | SMILES | Judging danger to human body [1] | odor [1] | pH of aqueous solution [2] | Generation of heat of dissolution [3] | Existance of legal regulation [4] | Generation of heat of dissolution ([3]; Table 1, concentration adjustment of the aqueous solution)
1 | [K+].[OH-] [Potassium hydroxide] | Very dangerous | Odorless | 15 | Large | Drastic medicine | 
2 | O=C([O-])[O-].[Na+].[Na+] [sodium carbonate] | The risk is small | Odorless | 12 | Medium | No regulation | 
3 | O=C([O-])[O-].[K+].[K+] [Potassium carbonate] | The risk is small | Odorless | 11 | Medium | No regulation | 
4 | [Ca+2].[OH-].[OH-] [Calcium hydroxide] | The risk is small | Odorless | 12 |  | No regulation | 
5 | N [ammonia] | Very dangerous | Pungent |  |  | Drastic medicine | 
6 | O=C([O-])CC(O)(CC(=O)[O-])C(=O)[O-].[Na+].[Na+].[Na+] [Sodium citrate] | The risk is small | Odorless |  |  | No regulation | 
7 | [Na+].[OH-] [Sodium hydroxide] |  |  |  |  | Drastic medicine | Large
